Measured values: patent publication EP4603105A1, “PHARMACEUTICAL COMPOSITION CONTAINING CYCLIC COMPOUND HAVING SELECTIVE KRAS INHIBITORY EFFECT AGAINST HRAS AND NRAS” (CHUGAI SEIYAKU KABUSHIKI KAISHA, priority 2022, dated 2024)

Columns and labels:
[1] = biological target: GDP-bound NRAS wild-type protein (Homo sapiens, UniProt P01111); experiment: Binding to NRAS by surface plasmon resonance (SPR), KD and KD ratio to KRAS; conditions: ratio of KD value for GDP-bound NRAS wild-type protein to KD value for KRAS (SPR)
Chain of GDP-bound NRAS wild-type protein (P01111 whole entry): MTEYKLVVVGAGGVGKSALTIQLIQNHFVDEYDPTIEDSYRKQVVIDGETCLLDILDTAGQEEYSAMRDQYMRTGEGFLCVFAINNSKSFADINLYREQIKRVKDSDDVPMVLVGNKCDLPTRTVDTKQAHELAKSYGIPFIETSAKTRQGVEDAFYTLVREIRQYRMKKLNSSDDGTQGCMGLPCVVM
In short: (§1)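 GDP-bound biotin-Avi RAS captured at ~100–300 RU, 30°C, pH 7.4 HBS containing 10 µM GDP, 10 mM MgCl2, 1 mM DTT, 0.01% Tween 20 and 4% DMSO. KD by 1:1 fitting.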

[2] = test system: human lung cancer strain NCI-H441; assay type: cell-based
In short: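 Readout: […] after the ATP-based reagent. Compound: serial dilutions in dimethyl sulfoxide.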

[3] = biological target: HRAS wild-type protein (Homo sapiens, UniProt P01112); experiment: Binding to HRAS by surface plasmon resonance (SPR), KD and KD ratio to KRAS; conditions: ratio of KD value for HRAS wild-type protein to KD value for KRAS (SPR)
Chain of HRAS wild-type protein (P01112 whole entry): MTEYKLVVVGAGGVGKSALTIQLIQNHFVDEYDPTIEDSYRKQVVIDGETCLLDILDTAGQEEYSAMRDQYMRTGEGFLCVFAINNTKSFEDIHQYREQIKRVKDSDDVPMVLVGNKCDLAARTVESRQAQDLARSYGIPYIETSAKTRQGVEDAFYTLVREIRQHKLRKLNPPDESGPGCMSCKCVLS
In short: as §1

| Compound | NRAS /KRAS [1] | IC50 [2] [nM] | HRAS /KRAS [3] |
| --- | --- | --- | --- |
| CC[C@H](C)[C@@H]1NC(=O)[C@H](CC2CC2)N(C)C(=O)C[C@@H](C(=O)N(C)C)N(C)C(=O)[C@H](C2CCCC2)N(C)C(=O)C2(CC(C)(C)C2)NC(=O)[C@@H]2C[C@@H](C(F)(F)F)CN2C(=O)[C@H](CCc2cc(F)c(C(F)(F)F)c(F)c2)NC(=O)CN(C)C(=O)[C@H](Cc2ccc(F)cc2)N2CC/C=C\C[C@@H](C2=O)N(C)C(=O)CN(C)C1=O [PP1507] | A (a compound having 10 or more and less than 20 is denoted as A) | 16.2 | A (a compound having 10 or more and less than 20 is denoted as A) |
| CC[C@H](C)[C@@H]1NC(=O)[C@H](CC2CC2)N(C)C(=O)C[C@@H](C(=O)N2CCCC2)N(C)C(=O)[C@H](C2CCCC2)N(C)C(=O)C2(CCC2)NC(=O)[C@@H]2C[C@H](C)CN2C(=O)[C@H](CCc2cc(F)c(C(F)(F)F)c(F)c2)NC(=O)CN(C)C(=O)[C@H](Cc2ccc(C(F)(F)F)cc2)N2CC/C=C\C[C@@H](C2=O)N(C)C(=O)CN(C)C1=O [PP1510] | AA (a compound having 20 or more is denoted as AA) | 34.5 | A (a compound having 10 or more and less than 20 is denoted as A) |
| CC[C@H](C)[C@@H]1NC(=O)[C@H](CC2CC2)N(C)C(=O)C[C@@H](C(=O)N(C)C)N(C)C(=O)[C@H](C2CCCC2)N(C)C(=O)C2(CCCC2)NC(=O)[C@@H]2C[C@H](C)CN2C(=O)[C@H](CCc2cc(F)c(C(F)(F)F)c(F)c2)NC(=O)CN(C)C(=O)[C@H](Cc2ccc(C(F)(F)F)cc2)N2CC/C=C\C[C@@H](C2=O)N(C)C(=O)CN(C)C1=O [PP1511] | AA (a compound having 20 or more is denoted as AA) | 13.7 | A (a compound having 10 or more and less than 20 is denoted as A) |
| CC[C@H](C)[C@@H]1NC(=O)[C@H](CC2CC2)N(C)C(=O)C[C@@H](C(=O)N2CCCC2)N(C)C(=O)[C@H](C2CCCC2)N(C)C(=O)C2(CCC2)NC(=O)[C@@H]2CC(F)(F)CN2C(=O)[C@H](CCc2cc(F)c(C(F)(F)F)c(F)c2)NC(=O)CN(C)C(=O)[C@H](Cc2ccc(C(F)(F)F)cc2)N2CC/C=C\C[C@@H](C2=O)N(C)C(=O)CN(C)C1=O [PP1512] | AA (a compound having 20 or more is denoted as AA) | 16.9 | A (a compound having 10 or more and less than 20 is denoted as A) |
| CC[C@H](C)[C@@H]1NC(=O)[C@H](CC2CC2)N(C)C(=O)C[C@@H](C(=O)N(C)C)N(C)C(=O)[C@H](C2CCCC2)N(C)C(=O)C2(CCCC2)NC(=O)[C@@H]2CC(F)(F)CN2C(=O)[C@H](CCc2cc(F)c(C(F)(F)F)c(F)c2)NC(=O)CN(C)C(=O)[C@H](Cc2ccc(C(F)(F)F)cc2)N2CC/C=C\C[C@@H](C2=O)N(C)C(=O)CN(C)C1=O [PP1513] | A (a compound having 10 or more and less than 20 is denoted as A) | 8.3 | A (a compound having 10 or more and less than 20 is denoted as A) |
| CCO[C@@H]1C[C@H]2C(=O)NC3(CCC3)C(=O)N(C)[C@@H](C(CC)CC)C(=O)N(C)[C@H](C(=O)N(C)C)CC(=O)N(C)[C@@H](CC3CCCC3)C(=O)N[C@@H]([C@@H](C)CC)C(=O)N(C)CC(=O)N(C)[C@H]3C/C=C\CCN(C3=O)[C@@H](Cc3ccc(F)cc3C)C(=O)N(C)CC(=O)N[C@@H](CCc3cc(F)c(C(F)(F)F)c(F)c3)C(=O)N2C1 [PP1516] | A (a compound having 10 or more and less than 20 is denoted as A) | 45.7 | B (a compound having 3 or more and less than 10 is denoted as B) |
| CCO[C@@H]1C[C@H]2C(=O)NC3(CCC3)C(=O)N(C)[C@@H](C(CC)CC)C(=O)N(C)[C@H](C(=O)N(C)C)CC(=O)N(C)[C@@H](CC3CCCC3)C(=O)N[C@@H]([C@@H](C)CC)C(=O)N(C)CC(=O)N(C)[C@H]3C/C=C\CCN(C3=O)[C@@H](Cc3ccc(F)cc3)C(=O)N(C)CC(=O)N[C@@H](CCc3cc(F)c(C(F)(F)F)c(F)c3)C(=O)N2C1 [PP1517] | A (a compound having 10 or more and less than 20 is denoted as A) | 33.6 | A (a compound having 10 or more and less than 20 is denoted as A) |
| CCO[C@@H]1C[C@H]2C(=O)NC3(CCC3)C(=O)N(C)[C@@H](C(CC)CC)C(=O)N(C)[C@H](C(=O)N(C)C)CC(=O)N(C)[C@@H](CC(C)C)C(=O)N[C@@H]([C@@H](C)CC)C(=O)N(C)CC(=O)N(C)[C@H]3C/C=C\CCN(C3=O)[C@@H](Cc3ccc(F)cc3C)C(=O)N(C)CC(=O)N[C@@H](CCc3cc(F)c(C(F)(F)F)c(F)c3)C(=O)N2C1 [PP1518] | A (a compound having 10 or more and less than 20 is denoted as A) | 49.4 | B (a compound having 3 or more and less than 10 is denoted as B) |
| CCO[C@@H]1C[C@H]2C(=O)NC3(CCC3)C(=O)N(C)[C@@H](C(CC)CC)C(=O)N(C)[C@H](C(=O)N(C)C)CC(=O)N(C)[C@@H](CC(C)C)C(=O)N[C@@H]([C@@H](C)CC)C(=O)N(C)CC(=O)N(C)[C@H]3C/C=C\CCN(C3=O)[C@@H](Cc3ccc(F)cc3)C(=O)N(C)CC(=O)N[C@@H](CCc3cc(F)c(C(F)(F)F)c(F)c3)C(=O)N2C1 [PP1519] | A (a compound having 10 or more and less than 20 is denoted as A) | 78.2 | A (a compound having 10 or more and less than 20 is denoted as A) |
| CCO[C@@H]1C[C@H]2C(=O)NC3(CCC3)C(=O)N(C)[C@@H](C(CC)CC)C(=O)N(C)[C@H](C)CC(=O)N(C)[C@@H](CC3CC3)C(=O)N[C@@H]([C@@H](C)CC)C(=O)N(C)CC(=O)N(C)[C@H]3C/C=C\CCN(C3=O)[C@@H](Cc3ccc(F)cc3)C(=O)N(C)CC(=O)N[C@@H](CCc3cc(F)c(C(F)(F)F)c(F)c3)C(=O)N2C1 [PP1521] | A (a compound having 10 or more and less than 20 is denoted as A) | 173 | B (a compound having 3 or more and less than 10 is denoted as B) |
| CCO[C@@H]1C[C@H]2C(=O)NC3(CCC3)C(=O)N(C)[C@@H](C(CC)CC)C(=O)N(C)[C@H](C)CC(=O)N(C)[C@@H](CC3CCCC3)C(=O)N[C@@H]([C@@H](C)CC)C(=O)N(C)CC(=O)N(C)[C@H]3C/C=C\CCN(C3=O)[C@@H](Cc3ccc(F)cc3C)C(=O)N(C)CC(=O)N[C@@H](CCc3cc(F)c(C(F)(F)F)c(F)c3)C(=O)N2C1 [PP1522] | A (a compound having 10 or more and less than 20 is denoted as A) | 567 | A (a compound having 10 or more and less than 20 is denoted as A) |
| CCO[C@@H]1C[C@H]2C(=O)NC3(CCC3)C(=O)N(C)[C@@H](C(CC)CC)C(=O)N(C)[C@H](C(=O)N3CCOCC3)CC(=O)N(C)[C@@H](CC3CC3)C(=O)N[C@@H]([C@@H](C)CC)C(=O)N(C)CC(=O)N(C)[C@H]3C/C=C\CCN(C3=O)[C@@H](Cc3ccc(F)cc3C)C(=O)N(C)CC(=O)N[C@@H](CCc3cc(F)c(C(F)(F)F)c(F)c3)C(=O)N2C1 [PP1526] | A (a compound having 10 or more and less than 20 is denoted as A) | 118 | A (a compound having 10 or more and less than 20 is denoted as A) |
| CCO[C@@H]1C[C@H]2C(=O)NC3(CCC3)C(=O)N(C)[C@@H](C3CCCC3)C(=O)N(C)[C@H](C(=O)N(C)C)CC(=O)N(C)[C@@H](CC3CCCC3)C(=O)N[C@@H]([C@@H](C)CC)C(=O)N(C)CC(=O)N(C)[C@H]3C/C=C\CCN(C3=O)[C@@H](Cc3ccc(F)cc3)C(=O)N(C)CC(=O)N[C@@H](CCc3cc(F)c(C(F)(F)F)c(F)c3)C(=O)N2C1 [PP1531] | A (a compound having 10 or more and less than 20 is denoted as A) | 13.9 | B (a compound having 3 or more and less than 10 is denoted as B) |
| CCO[C@@H]1C[C@H]2C(=O)NC3(CCC3)C(=O)N(C)[C@@H](C3CCCC3)C(=O)N(C)[C@H](C(=O)N(C)C)CC(=O)N(C)[C@@H](CC(C)C)C(=O)N[C@@H]([C@@H](C)CC)C(=O)N(C)CC(=O)N(C)[C@H]3C/C=C\CCN(C3=O)[C@@H](Cc3ccc(F)cc3C)C(=O)N(C)CC(=O)N[C@@H](CCc3cc(F)c(C(F)(F)F)c(F)c3)C(=O)N2C1 [PP1532] | A (a compound having 10 or more and less than 20 is denoted as A) | 13.4 | B (a compound having 3 or more and less than 10 is denoted as B) |
| CC[C@H](C)[C@@H]1NC(=O)[C@H](CC2CC2)N(C)C(=O)C[C@@H](C(=O)N(C)C)N(C)C(=O)[C@H](C2CCCC2)N(C)C(=O)C2(CCC2)NC(=O)[C@@H]2[C@@H](OCC(F)F)CCN2C(=O)[C@H](CCc2cc(F)c(C(F)(F)F)c(F)c2)NC(=O)CN(C)C(=O)[C@H](Cc2ccc(C(F)(F)F)cc2)N2CC/C=C\C[C@@H](C2=O)N(C)C(=O)CN(C)C1=O [PP1533] | AA (a compound having 20 or more is denoted as AA) | 23.8 | A (a compound having 10 or more and less than 20 is denoted as A) |
